Experimental data published in patent US10195156B2, “Compounds and compositions for intracellular delivery of agents” (ModernaTX, Inc., priority 2015, dated 2019).

Assays:
[1] = Particle size and polydispersity index of nanoparticle compositions (Zetasizer Nano ZS); assay type: physicochemical
How it was run: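 Values are size and PDI readings from a Zetasizer Nano ZS. Measurements are taken in 1×PBS; zeta potential, by contrast, uses 15 mM PBS.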

[2] = Encapsulation efficiency of RNA (QUANT-IT RIBOGREEN RNA assay); assay type: physicochemical
How it was run: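 RiboGreen fluorescence (ex ~480, em ~520 nm) measured after 15 min at 37 °C on samples at ~5 μg/mL in TE, pH 7.5, ± 2% Triton X-100 solution. After blank subtraction, free RNA is given as intact-sample signal divided by disrupted-sample signal.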

[3] = pKa of nanoparticle compositions; assay type: physicochemical; conditions: Table 1; rows without footnote mark
LDL-c = assay: LDL levels in LDLr−/− mice after mRNA encoding the LDL receptor; assay type: in vivo, LDLR knockout mice; conditions: Mus musculus; Table 7b; LDLr−/− mice, 0.5 mpk, LDLr; read-out: LDL levels lipid/untreated LDLr−/− mice 0.5 mpk, LDLr
Luc expression = Luc expression in CD-1 mice (AUC relative to MC3); assay type: in vivo; conditions: Table 7c
Procedure: FIG. 15 is a graph summarizing luciferase expression levels at 6 h after administration of nanoparticle compositions containing compounds of the disclosure to CD-1 mice at a dose of 0.5 mpk. Total light flux values were acquired via body luminescent imaging (BLI) 6 h after administration. In this Figure, the numbers 1-7 and 10 refer to the compositions containing Compounds 4-10 and MC3 respectively.
(§1) In contrast, hEPO expression in rats induced by administration of a nanoparticle composition including a compound according to one of formulae (I), (Ia1)-(Ia6), (Ib), (II), (IIa), (III), and (IIIa) was substantially […] than that measured for MC3. […] Table 7c and 7d show additional protein expressions and clearance data from compositions with various compounds disclosed herein as compared to with MC3.

[4] = Lipid clearance: % dose remaining in mouse liver 6 h and 24 h after administration of nanoparticle compositions; assay type: in vivo, CD-1 mice; conditions: Table 7c
Source text: as §1

[5] = Table 1, rows without footnote mark
[6] = Table 1, rows without footnote mark (lipid:DOPE:cholesterol:PEG-DMG 40:20:38.5:1.5, Luc mRNA; MC3 standard formulation)

Compound | PDI [1, 5] | Size (nm) [1, 6] | EE (%) [2, 5] | pKa [3] | response vs control in vivo at 0.5 mg/kg (LDL-c) | PDI ([1]; Table 1b) | Size (nm) ([1]; Table 1b) | EE (%) ([2]; Table 1b) | AUC (p/s*h) (Luc expression) | % Dose Remaining 6 hr [4] | % Dose Remaining 24 hr [4]
CCCCCCCCCCCCN(CCCCCCCCCCCC)CCN(CCCCCCCCCCCC)CC(=O)N1CCN(C(=O)CN(CCCCCCCCC)CCCCCCCCC)CC1 [Compound 7, 2-((2-(Didodecylamino)ethyl)(dodecyl)amino)-1-(4-(dinonylglycyl)piperazin-1-yl)ethan-1-one] | 0.130 | 85.1 nm | 99.1% | 6.94 | 63% |  |  |  |  |  | 
CCCCCCCCCN(CCCCCCCCC)CCN(CCCCCCCCC)CC(=O)N1CCN(C(=O)CN(CCCCCCCCC)CCCCC(=O)OCCCC)CC1 [Compound 55, Butyl 5-((2-(4-(N-(2-(dinonylamino)ethyl)-N-nonylglycyl)piperazin-1-yl)-2-oxoethyl)(nonyl)amino)pentanoate] |  |  |  |  |  | 0.23 | 119.5 nm | 95.2% | 2.00E+10 p/s*h | 2.58% | 1.60%
CCCCCCCCCN(CCCCCCCC(=O)OC)CCC1CCN(C(=O)CN(CCCCCCCCC)CCN(CCCCCCCCC)CCCCCCCCC)CC1 [Compound 57, Methyl 8-((2-(1-(N-(2-(dinonylamino)ethyl)-N-nonylglycyl)piperidin-4-yl)ethyl)(nonyl)amino)octanoate] |  |  |  |  |  | 0.23 | 101.9 nm | 98.8% | 1.21E+11 p/s*h | 0.88% | 0.24%
CCCCCCCCCN(CCCCCC(=O)OCCC)CCC1CCN(C(=O)CN(CCCCCCCCC)CCN(CCCCCCCCC)CCCCCCCCC)CC1 [Compound 59, Propyl 6-((2-(1-(N-(2-(dinonylamino)ethyl)-N-nonylglycyl)piperidin-4-yl)ethyl)(nonyl)amino)hexanoate] |  |  |  |  |  | 0.23 | 104.7 nm | 98.6% | 1.19E+11 p/s*h | 6.99% | 5.03%
CCCCCCCCCN(CCCCCCCCC)CCN(CCCCCCCCC)CC(=O)N1CCN(C(=O)CN(CCCCCCCCC)CCCCCC(=O)OCCC)CC1 [Compound 54, Propyl 6-((2-(4-(N-(2-(dinonylamino)ethyl)-N-nonylglycyl)piperazin-1-yl)-2-oxoethyl)(nonyl)amino)hexanoate] |  |  |  |  |  | 0.23 | 93.0 nm | 96.9% | 1.89E+10 p/s*h | 5.18% | 4.77%
CCCCCCCCCCCCN(CCCCCCCCCCCC)CCN(CCCCCCCCC)CC(=O)N1CCN(C(=O)CN(CCCCCCCCCCCC)CCCCCCCCCCCC)CC1 [Compound 10, 2-(Didodecylamino)-1-(4-(N-(2-(didodecylamino)ethyl)-N-nonylglycyl)piperazin-1-yl)ethan-1-one] | 0.130 | 81.3 nm | 99.2% | 6.58 | 98% |  |  |  |  |  | 
CCCCCCCCCCCCN(CCCCCCCCCCCC)CC(=O)N1CCN(C(=O)CN(CCCCCCCCC)CCN(CCCCCCCCC)CCCCCCCCC)CC1 [Compound 8, 2-(Didodecylamino)-1-(4-(N-(2-(dinonylamino)ethyl)-N-nonylglycyl)piperazin-1-yl)ethan-1-one] | 0.110 | 83.3 nm | 98.5% | 6.87 | 66% |  |  |  |  |  | 
CCCCCCCCCN(CCCCCCC(=O)OCC)CCC1CCN(C(=O)CN(CCCCCCCCC)CCN(CCCCCCCCC)CCCCCCCCC)CC1 [Compound 58, Ethyl 7-((2-(1-(N-(2-(dinonylamino)ethyl)-N-nonylglycyl)piperidin-4-yl)ethyl)(nonyl)amino)heptanoate] |  |  |  |  |  | 0.23 | 112.8 nm | 98.9% | 1.38E+11 p/s*h | 1.37% | 0.61%
CCCCCCCCCN(CCCCCCCCC)CCN(CCCCCCCCC)CC(=O)N1CCN(C(=O)CN(CCCC(=O)OCCCCC)CCCC(=O)OCCCCC)CC1 [Compound 72, Dipentyl 4,4′-((2-(4-(N-(2-(dinonylamino)ethyl)-N-nonylglycyl)piperazin-1-yl)-2-oxoethyl)azanediyl)dibutyrate] |  |  |  |  |  | 0.22 | 102.5 nm | 92.7% | 6.53E+10 p/s*h | 7.06% | 6.40%
CCCCCCCCCN(CCCOC(=O)CCCCC)CCC1CCN(C(=O)CN(CCCCCCCCC)CCN(CCCCCCCCC)CCCCCCCCC)CC1 [Compound 61, 3-((2-(1-(N-(2-(Dinonylamino)ethyl)-N-nonylglycyl)piperidin-4-yl)ethyl)(nonyl)amino)propyl hexanoate] |  |  |  |  |  | 0.23 | 86.8 nm | 99.1% | 4.65E+11 p/s*h | 1.31% | 0.13%
CCCCCCCCCCCCN(CCN(CCCCCCCCC)CCCCCCCCC)CC(=O)N1CCN(C(=O)CN(CCCCCCCCC)CCCCCCCCC)CC1 [Compound 5, 2-(Dinonylamino)-1-(4-(N-(2-(dinonylamino)ethyl)-N-dodecylglycyl)piperazin-1-yl)ethan-1-one] | 0.140 | 85.1 nm | 98.1% | 7.01 | 47% |  |  |  |  |  | 
CCCCCCCCCN(CCCCCCCCC)CCN(CCCCCCCCC)CC(=O)N1CCN(C(=O)CN(CCCCCCCCC)CCCOC(=O)CCCCC)CC1 [Compound 56, 3-((2-(4-(N-(2-(Dinonylamino)ethyl)-N-nonylglycyl)piperazin-1-yl)-2-oxoethyl)(nonyl)amino)propyl Hexanoate] |  |  |  |  |  | 0.24 | 117.4 nm | 99.0% | 1.77E+11 p/s*h | 1.21% | 0.16%
CCCCCCCCCCCCN(CCCCCCCCCCCC)CC(=O)N1CCN(C(=O)CN(CCCCCCCCCCCC)CCN(CCCCCCCCC)CCCCCCCCC)CC1 [Compound 9, 2-(Didodecylamino)-1-(4-(N-(2-(dinonylamino)ethyl)-N-dodecylglycyl)piperazin-1-yl)ethan-1-one] | 0.170 | 78.0 nm | 99.5% | 6.76 | 87% |  |  |  |  |  | 
CCCCCCCCCN(CCCC(=O)OCCCCC)CCN(CCCCCCCCC)CC(=O)N1CCN(C(=O)CN(CCCCCCCCC)CCCC(=O)OCCCCC)CC1 [Compound 71, Pentyl 4-(nonyl(2-(4-(N-nonyl-N-(2-(nonyl(4-oxo-4-(pentyloxy)butyl)amino)ethyl)glycyl)piperazin-1-yl)-2-oxoethyl)amino)butanoate] |  |  |  |  |  | 0.18 | 99.9 nm | 91.0% | 1.77E+11 p/s*h | 12.39% | 9.25%
CCCCCCCCCCCCN(CCCCCCCCCCCC)CCN(CCCCCCCCC)CC(=O)N1CCN(C(=O)CN(CCCCCCCCC)CCCCCCCCC)CC1 [Compound 6, 2-((2-(Didodecylamino)ethyl)(nonyl)amino)-1-(4-(dinonylglycyl)piperazin-1-yl)ethan-1-one] | 0.160 | 81.4 nm | 98.9% | 6.62 | 91% |  |  |  |  |  | 
CCCCCCCCCN(CCCCC(=O)OCCCC)CCC1CCN(C(=O)CN(CCCCCCCCC)CCN(CCCCCCCCC)CCCCCCCCC)CC1 [Compound 60, Butyl 5-((2-(1-(N-(2-(dinonylamino)ethyl)-N-nonylglycyl)piperidin-4-yl)ethyl)(nonyl)amino)pentanoate] |  |  |  |  |  | 0.23 | 105.7 nm | 98.8% | 2.84E+11 p/s*h | 21.18% | 15.98%
